Results reported in US10772856B2, “Compositions and methods of use of beta-hydroxy-beta-methylbutyrate (HMB) for decreasing fat mass” (Metabolic Technologies, Inc., priority 2015, dated 2020).

What was measured:
[1] = after administration; cited from earlier work
skeletal muscle = details: acute ingestion of 2.4 grams; cited from earlier work
OP9 adipocytes = experiment: Basal and isoproterenol stimulated lipolysis in differentiated OP9 adipocytes; format: cell-based
Protocol: As noted above, an increase in expression of ATGL in cells treated with HMB was observed, so the effect of HMB treatment on basal and isoproterenol stimulated lipolysis was determined directly in cultured adipocytes. The protocol of Viswanadha and Londos was used for optimization of conditions for measuring lipolysis in murine primary adipoctyes (J. Lipid Res. 2006. 47: 1859-1864) that include treatment with adenosine deaminase (ADA) to remove endogenous adenosine and then addition of ADA resistant PIA (phenylisopropyl-adenosine).
The following treatment strategies were tested: HMB doses of 0.1, 1 and 6 mM; 2 concentrations of the beta-adrenergic agonist isoproterenol 0.1 and 1 uM, and short term (immediately before lipolysis assay) vs. long term (48 h) HMB treatment (n=4 per treatment). Op9 adipocytes were used as SGBS cells take a long time (several weeks) to differentiate making them inconvenient to use.
Cells were pre-treated with varying concentrations of HMB in OP9 growth medium for 48 hrs. Following pre-treatment, cells were washed and incubated with Isoproterenol (0.1 or 1.0 uM) in lipolysis buffer: Krebs ringer bicarbonate (KRB) with 4% BSA. The medium also contained adenosine deaminase (ADA) and phenyl-isopropyl-adenosine (PIA) for 2 hrs at 37° C. ADA was added to remove endogenous adenosine and PIA, which is resistant to ADA, was used to have low standardized basal lipolysis. Following treatment, media was assayed for glycerol content and cells were lysed with RIPA buffer to determine protein concentration, *p<0.05, ** p<0.01. N=4.

[2] = after HMB is fed; cited from earlier work
[3] = healthy young or old adults; cited from earlier work
[4] = test system: Differentiated human adipocytes (SGBS); experiment: Phosphokinase protein array of SGBS adipocytes; format: cell-based; details: 1 mM HMB, 4 days, vs untreated cells
Protocol: This approach was used to determine in non-biased way changes in protein phosphorylation that are known to influence activity of important signaling proteins. Differentiated human adipocytes were treated for 4 days with or without HMB (1 mM). Shown are only the significant increases above untreated cells in phosphorylation of the listed protein at the indicated phosphorylation site(s).

3T3-F442A adipocytes = experiment: Lipolysis (glycerol release) in 3T3-F442A adipocytes; format: cell-based, Murine; details: 1 hour
Protocol: Methods. Murine 3T3-F442A preadipocytes were grown until confluence. After confluence, 3T3-F442A cells were allowed to differentiate into adipocytes and become filled with triglycerides. Lipolysis was assessed as glycerol release from 3T3-F442A adipocytes in well plates. Adipocyte monolayers were incubated with Krebs-Ringer buffer containing Hepes (KRH), supplemented with 2% fatty acid-free BSA, 5 mM glucose, ADA and PIA. In addition, cells were treated with β-hydroxy-β-methylbutyrate (HMB) at either 0 (control), 0.1, 1, or 6 mM concentrations. Cells were incubated in the absence (Basal) or in the presence of 0.1 μM isoproterenol for 1 hour. Aliquots of the incubation medium were removed and frozen until glycerol determination. Glycerol was measured by a commercial enzymatic method. Data were presented as the fold increase over control. Results. […] Lipolysis in Human Subcutaneous Adipocytes Methods. Human subcutaneous adipocytes were obtained from donors and incubated in vitro. Lipolysis was assessed as glycerol release in well plates. Adipocyte were incubated with Krebs-Ringer buffer containing Hepes (KRH), supplemented with 4% fatty acid-free BSA, 5 mM glucose, ADA and PIA. In addition, cells were treated with β-hydroxy-β-methylbutyrate (HMB) at either 0 (control), 0.1, or 1 mM concentrations in the presence of 1.0 μM isoproterenol for 2 hours. Aliquots of the incubation medium were removed and frozen until glycerol determination. Glycerol was measured by a commercial enzymatic method. Data were presented as the fold increase over control. Results. […] Effect of HMB on Gene Expression in Differentiated Adipocytes SGBS human pre-adipocytes were differentiated into adipocytes and treated with 1 mM HMB for 4 days. The human Simpson-Golabi-Behmel syndrome (SGBS) preadipocyte cell strain cells originate from an adipose tissue specimen of a patient with GSBS. Microarrays (mRNAs) were performed. […] Similarly, cytokine receptor interaction and calcium signaling pathways are also elevated as measured by mRNAs.

[5] = test system: SGBS human pre-adipocytes differentiated into adipocytes; experiment: Microarray (mRNA) pathway analysis in differentiated SGBS adipocytes; format: cell-based; details: 1 mM HMB for 4 days
Protocol: (§1) Methods. Murine 3T3-F442A preadipocytes were grown until confluence. After confluence, 3T3-F442A cells were allowed to differentiate into adipocytes and become filled with triglycerides. Lipolysis was assessed as glycerol release from 3T3-F442A adipocytes in well plates. Adipocyte monolayers were incubated with Krebs-Ringer buffer containing Hepes (KRH), supplemented with 2% fatty acid-free BSA, 5 mM glucose, ADA and PIA. In addition, cells were treated with β-hydroxy-β-methylbutyrate (HMB) at either 0 (control), 0.1, 1, or 6 mM concentrations. Cells were incubated in the absence (Basal) or in the presence of 0.1 μM isoproterenol for 1 hour. Aliquots of the incubation medium were removed and frozen until glycerol determination. Glycerol was measured by a commercial enzymatic method. Data were presented as the fold increase over control. Results. […] Lipolysis in Human Subcutaneous Adipocytes Methods. Human subcutaneous adipocytes were obtained from donors and incubated in vitro. Lipolysis was assessed as glycerol release in well plates. Adipocyte were incubated with Krebs-Ringer buffer containing Hepes (KRH), supplemented with 4% fatty acid-free BSA, 5 mM glucose, ADA and PIA. […] Glycerol was measured by a commercial enzymatic method. […] Similarly, cytokine receptor interaction and calcium signaling pathways are also elevated as measured by mRNAs.

[6] = test system: Differentiated adipocytes; experiment: Gene expression by qPCR in differentiated adipocytes; format: cell-based; details: 1 mM HMB, 4 days
Protocol: Differentiated adipocytes were incubated for 4 days with 1 mM of HMB. RNA was extracted and gene expression was determined by qPCR. Gene expression for ATGL, ACOX, PGC1a, ATG7 and BNIP3 were analyzed. […] ATGL is highly expressed in adipose tissue of humans and mice. ACOX1, or acyl-CoA oxidase 1 is the first enzyme involved in peroxisomal fatty acid oxidation. This occurs when the fatty acid chains are too long to be handled by the mitochondria. The high-potential electrons generated are transferred to O2→H2O2 (+heat) which in the presence of catalase→H2O and O2. PGC1α is a key regulator of energy metabolism and is found to be very important in the development of brown adipose tissue which is the high energy yielding adipose tissue. Autophagy-related protein 7 (ATG7) regulates fat mass. Knocking ATG7 down will result in abnormal non-functional adipose tissue. Elevated levels increase tissue recycling. BNIP3 is another autophagy-related protein like ATG7 that appears to be significant. The gene expression results appear in FIG. 3.

[7] = test system: Human subcutaneous adipocytes; experiment: Lipolysis (glycerol release) in human subcutaneous adipocytes; format: cell-based; details: 1.0 μM isoproterenol, 2 hours
Protocol: as §1

For CC(C)(O)CC(=O)O [HMB-FA], the “plasma levels of HMB compared with calcium HMB” value [1] is listed as “approximately double”, the “time to plasma levels compared with calcium HMB” value [1] is listed as “about one-quarter the time” and the “protein breakdown, change” value (skeletal muscle) is listed as −56%. The “skeletal muscle protein synthesis, change” value (skeletal muscle) was “+70%”.
For CC(C)NCC(O)c1ccc(O)c(O)c1 (centres unmarked) [isoproterenol, reference compound], the maximal lipolysis (OP9 adipocytes; higher concentrations of isoproterenol (1.0 vs 0.1 uM)) was “reduced maximal lipolysis”.
In the case of CC(C)(O)CC(=O)O [HMB, β-hydroxy-β-methylbutyric acid], the “loss of HMB to urine” value [2] is listed as 20-50%, the “enhancement of lipolysis in response to isoproterenol” value (OP9 adipocytes; 0.1 mM HMB 48 h pre-treatment, 0.1 uM isoproterenol) is listed as 2 fold and the “increase of lipolysis over no HMB” value (OP9 adipocytes; 1 mM HMB 48 h pre-treatment, 0.1 uM isoproterenol) is listed as 4 fold. For the same compound, the “enhancement of lipolysis response to isoproterenol” value (OP9 adipocytes; 6 mM HMB 48 h pre-treatment, 0.1 uM isoproterenol) was 3 fold, the “increase of basal lipolysis” value (OP9 adipocytes; HMB pretreatment, ADA followed by PIA, no isoproterenol) was “about 2 fold” and the “enhancement of isoproterenol-stimulated lipolysis (glycerol)” value (OP9 adipocytes; pre-treatment with HMB for 48 h, all HMB doses) was 2-4 fold. The side effects [3] was “no side effects”, the “Fold Change with HMB, phosphorylation of CREB S133” value [4] was 1.233 Fold and the “Fold Change with HMB, phosphorylation of FGR Y412” value [4] was 1.262 Fold. The “Fold Change with HMB, phosphorylation of Fyn Y420” value [4] was 1.400 Fold, the “Fold Change with HMB, phosphorylation of GSK-3a/b S21/S9” value [4] was 1.255 Fold and the “Fold Change with HMB, phosphorylation of Lyn Y397” value [4] was 1.335 Fold. The “Fold Change with HMB, phosphorylation of P53 S46” value [4] was 0.834 Fold, the “Fold Change with HMB, phosphorylation of RSK1/2/3 S380/S386/S377” value [4] was 0.732 Fold and the “Fold Change with HMB, phosphorylation of STAT5a/b Y694/Y699” value [4] was 0.804 Fold. For the same compound, the “Fold Change with HMB, phosphorylation of Yes Y426” value [4] was 1.224 Fold, the “Fold Change with HMB, phosphorylation of p53 S15” value [4] was 0.621 Fold and the “change in AKT1/2/3 at Threonine 308” value [4] was “no change”. For the same compound, the “lipolysis (glycerol release, fold increase over control)” value (3T3-F442A adipocytes; 0.1 μM isoproterenol stimulation, 0.1 mM HMB) was “increased lipolysis”, the “lipolysis (glycerol release, fold increase over control)” value (3T3-F442A adipocytes; 0.1 μM isoproterenol stimulation, 6.0 mM HMB) was “decreased lipolysis” and the “lipolysis (glycerol release, fold increase over control)” value (3T3-F442A adipocytes; basal, 0.1 mM HMB) was “increased lipolysis above control”. For the same compound, the “lipolysis (glycerol release, fold increase over control)” value (3T3-F442A adipocytes; basal, 1 mM HMB) was “increased lipolysis above control”, the “lipolysis (glycerol release, fold increase over control)” value (3T3-F442A adipocytes; basal, 6.0 mM HMB) was “decreased lipolysis” and the “Effect on pathway: IL6 signaling (mRNA microarray)” value [5] was 2.53 fold. For the same compound, the “expression of ATGL” value [6] was “increase”, the “lipolysis (glycerol release, fold increase over control)” value ([7]; 0.1 mM HMB) was “increased lipolysis above that of control” and the “lipolysis (glycerol release, fold increase over control)” value ([7]; 1 mM HMB) was “increased lipolysis above that of control”.
